Reference: patent publication US20020115699A1, “Method for treating renal disease” (SmithKline Beecham p.l.c., priority 1994, published 2002)

Key:
[1] = system: Zucker fatty (fa/fa) rats; test: Systolic blood pressure (tail cuff) in 9 month Zucker rat study; format: in vivo; conditions: Zucker fatty rats
Description: (§1) A second study was performed in Zucker rats over a period of 9 months to investigate the longitudinal effects of the drug on systolic blood pressure and various indices of renal function, two of which are exemplified here. In one arm of the study, the drug was given in the diet (50 μmole/kg of diet) from aged 6-7 weeks in Zucker fatty (fa/fa) rats, whilst in a second arm of the study, drug treatment as above was delayed until proteinuria had become established after 4 months, indicative of structural damage already present in the kidneys. A third group of Zucker fatty rats and a further group of lean rats were given diet alone throughout the period of study.
(§2) After dosing with the test compound, at monthly intervals measurements were made of systolic blood pressure, urinary total protein and urinary N-acetyl β-D-glucosaminidase (NAG) activity.
Rats were enclosed in custom-built restrainers and placed on a shelf in a warming cabinet, whose temperature was controlled at approximately 30° C. An inflatable cuff with integral pulse sensor was attached to the tail of each rat. After warming for 20-30 min the tail cuff was inflated and deflated automatically and a measurement of systolic blood pressure made using an IITC Non-Invasive Blood Pressure Monitor. This cycle was repeated several times for each rat until stable values of blood pressure were obtained.
(§3) In the tables below, results are given as mean values for the group ±the standard error of the mean. Results have been analysed by one way ANOVA and significant differences from the Zucker fatty rat control group have been indicated by an asterisk.

[2] = system: Zucker fatty (fa/fa) rats; test: Urinary N-acetyl β-D-glucosaminidase (NAG) activity in 9 month Zucker rat study; format: in vivo; conditions: for URINARY N-ACETYL-β-D-GLUCOSAMINIDASE ACTIVITY: mean ± SEM
Description: as §1, §2
Twenty-four hour urine collections, made in metabolism cages, were aliquoted and frozen at −70° C. until required for assay.
NAG activity was assayed using a reagent kit on a Hitachi 717 analyser (both suppied by Boehringer Mannheim UK, Lewes). Enzyme activity was measured by monitoring the rate of chlorophenol (570 nm) released from the substrate chlorophenol red-β-D-glucosaminide.
as §3

CN(CCOc1ccc(CC2SC(=O)NC2=O)cc1)c1ccccn1 (centres unmarked) [Test Compound, 5-[4-[2-(N-methyl-N-(2-pyridyl)amino)ethoxy]benzyl]thiazolidine-2,4-dione]
SYSTOLIC BLOOD PRESSURE ([1]; 50 μmol/kg of diet from age 6-7 weeks (prior to renal complications), treatment duration 8 months, mean ± SEM): 133 ± 5 mm Hg | SYSTOLIC BLOOD PRESSURE ([1]; 50 μmol/kg of diet from age 6-7 weeks (prior to renal complications), treatment duration 9 months, mean ± SEM): 143 ± 4 mm Hg | SYSTOLIC BLOOD PRESSURE ([1]; 50 μmol/kg of diet started once renal complications established (after 4 months), treatment duration 0 months, mean ± SEM): 146 ± 4 mm Hg | SYSTOLIC BLOOD PRESSURE ([1]; 50 μmol/kg of diet started once renal complications established (after 4 months), treatment duration 1 month, mean ± SEM): 140 ± 5 mm Hg | SYSTOLIC BLOOD PRESSURE ([1]; 50 μmol/kg of diet started once renal complications established (after 4 months), treatment duration 2 months, mean ± SEM): 134 ± 3 mm Hg | SYSTOLIC BLOOD PRESSURE ([1]; 50 μmol/kg of diet started once renal complications established (after 4 months), treatment duration 3 months, mean ± SEM): 144 ± 3 mm Hg | SYSTOLIC BLOOD PRESSURE ([1]; 50 μmol/kg of diet started once renal complications established (after 4 months), treatment duration 4 months, mean ± SEM): 139 ± 3 mm Hg | SYSTOLIC BLOOD PRESSURE ([1]; 50 μmol/kg of diet started once renal complications established (after 4 months), treatment duration 5 months, mean ± SEM): 146 ± 6 mm Hg | SYSTOLIC BLOOD PRESSURE ([1]; 50 μmol/kg of diet started once renal complications established (after 4 months), treatment duration −1 month (before start of drug), mean ± SEM): 141 ± 6 mm Hg | SYSTOLIC BLOOD PRESSURE ([1]; 50 μmol/kg of diet started once renal complications established (after 4 months), treatment duration −2 months (before start of drug), mean ± SEM): 138 ± 7 mm Hg | SYSTOLIC BLOOD PRESSURE ([1]; 50 μmol/kg of diet started once renal complications established (after 4 months), treatment duration −3 months (before start of drug), mean ± SEM): 123 ± 5 mm Hg | SYSTOLIC BLOOD PRESSURE ([1]; 50 μmol/kg of diet started once renal complications established (after 4 months), treatment duration −4 months (before start of drug), mean ± SEM): 106 ± 3 mm Hg | SYSTOLIC BLOOD PRESSURE ([1]; drug treatment commenced after proteinuria had become established): prevented from rising further | elevation of urinary NAG activity ([2]; Zucker fatty (fa/fa) rats treated from age 6-7 weeks for 9 months via the diet): markedly reduced | URINARY N-ACETYL-β-D-GLUCOSAMINIDASE ACTIVITY ([2]; Zucker fatty rats, 50 μmol/kg of diet from age 6-7 weeks (prior to renal complications), treatment duration 0 months): 5.7 ± 0.4 mU/hour | URINARY N-ACETYL-β-D-GLUCOSAMINIDASE ACTIVITY ([2]; Zucker fatty rats, 50 μmol/kg of diet from age 6-7 weeks (prior to renal complications), treatment duration 1 month): 7.5 ± 0.7 mU/hour | URINARY N-ACETYL-β-D-GLUCOSAMINIDASE ACTIVITY ([2]; Zucker fatty rats, 50 μmol/kg of diet from age 6-7 weeks (prior to renal complications), treatment duration 2 months): 3.8 ± 1.1 mU/hour | URINARY N-ACETYL-β-D-GLUCOSAMINIDASE ACTIVITY ([2]; Zucker fatty rats, 50 μmol/kg of diet from age 6-7 weeks (prior to renal complications), treatment duration 3 months): 4.5 ± 0.9 mU/hour | URINARY N-ACETYL-β-D-GLUCOSAMINIDASE ACTIVITY ([2]; Zucker fatty rats, 50 μmol/kg of diet from age 6-7 weeks (prior to renal complications), treatment duration 4 months): 5.1 ± 1.2 mU/hour | URINARY N-ACETYL-β-D-GLUCOSAMINIDASE ACTIVITY ([2]; Zucker fatty rats, 50 μmol/kg of diet from age 6-7 weeks (prior to renal complications), treatment duration 5 months): 6.5 ± 0.7 mU/hour | URINARY N-ACETYL-β-D-GLUCOSAMINIDASE ACTIVITY ([2]; Zucker fatty rats, 50 μmol/kg of diet from age 6-7 weeks (prior to renal complications), treatment duration 6 months): 6.5 ± 1.1 mU/hour | URINARY N-ACETYL-β-D-GLUCOSAMINIDASE ACTIVITY ([2]; Zucker fatty rats, 50 μmol/kg of diet from age 6-7 weeks (prior to renal complications), treatment duration 7 months): 8.9 ± 0.8 mU/hour | URINARY N-ACETYL-β-D-GLUCOSAMINIDASE ACTIVITY ([2]; Zucker fatty rats, 50 μmol/kg of diet from age 6-7 weeks (prior to renal complications), treatment duration 8 months): 6.2 ± 1.2 mU/hour | URINARY N-ACETYL-β-D-GLUCOSAMINIDASE ACTIVITY ([2]; Zucker fatty rats, 50 μmol/kg of diet from age 6-7 weeks (prior to renal complications), treatment duration 9 months): 9.1 ± 1.2 mU/hour | URINARY N-ACETYL-β-D-GLUCOSAMINIDASE ACTIVITY ([2]; Zucker fatty rats, 50 μmol/kg of diet started once renal complications established (after 4 months), treatment duration 0 months): 7.6 ± 0.7 mU/hour | URINARY N-ACETYL-β-D-GLUCOSAMINIDASE ACTIVITY ([2]; Zucker fatty rats, 50 μmol/kg of diet started once renal complications established (after 4 months), treatment duration 1 month): 7.6 ± 0.7 mU/hour | URINARY N-ACETYL-β-D-GLUCOSAMINIDASE ACTIVITY ([2]; Zucker fatty rats, 50 μmol/kg of diet started once renal complications established (after 4 months), treatment duration 2 months): 5.7 ± 0.9 mU/hour | URINARY N-ACETYL-β-D-GLUCOSAMINIDASE ACTIVITY ([2]; Zucker fatty rats, 50 μmol/kg of diet started once renal complications established (after 4 months), treatment duration 3 months): 7.4 ± 0.9 mU/hour | URINARY N-ACETYL-β-D-GLUCOSAMINIDASE ACTIVITY ([2]; Zucker fatty rats, 50 μmol/kg of diet started once renal complications established (after 4 months), treatment duration 4 months): 5.4 ± 1.0 mU/hour | URINARY N-ACETYL-β-D-GLUCOSAMINIDASE ACTIVITY ([2]; Zucker fatty rats, 50 μmol/kg of diet started once renal complications established (after 4 months), treatment duration 5 months): 8.0 ± 1.1 mU/hour | URINARY N-ACETYL-β-D-GLUCOSAMINIDASE ACTIVITY ([2]; Zucker fatty rats, 50 μmol/kg of diet started once renal complications established (after 4 months), treatment duration −1 month (before start of drug)): 7.8 ± 0.6 mU/hour | URINARY N-ACETYL-β-D-GLUCOSAMINIDASE ACTIVITY ([2]; Zucker fatty rats, 50 μmol/kg of diet started once renal complications established (after 4 months), treatment duration −2 months (before start of drug)): 9.5 ± 1.1 mU/hour | URINARY N-ACETYL-β-D-GLUCOSAMINIDASE ACTIVITY ([2]; Zucker fatty rats, 50 μmol/kg of diet started once renal complications established (after 4 months), treatment duration −3 months (before start of drug)): 8.3 ± 0.5 mU/hour | URINARY N-ACETYL-β-D-GLUCOSAMINIDASE ACTIVITY ([2]; Zucker fatty rats, 50 μmol/kg of diet started once renal complications established (after 4 months), treatment duration −4 months (before start of drug)): 5.4 ± 0.2 mU/hour | urinary NAG activity ([2]; Zucker fatty rats, drug treatment commenced after proteinuria had become established): prevented from rising further
